According to publication PMC10057893, “Synthesis and Biological Evaluation of New Schiff Bases Derived from 4-Amino-5-(3-fluorophenyl)-1,2,4-triazole-3-thione” (Molecules, 2023):
≈ marks a conversion by molar mass, not a printed value. Like-named read-outs stand apart in the source and are kept apart here.

Tests used:
[1] = MTT cell viability assay; type: cell-based; settings: human, HaCaT cells (immortal keratinocytes), HaCaT normal cell line, read-out: Cytotoxic activity IC50 (converted)
Description: (§1) All the cell lines were purchased from the American Type Culture Collection (ATCC, Rockville, MD, USA) and cultured in strictly defined conditions according to the recommended ATCC protocol. The PC3 cells were cultured in RPMI 1640 (Roswell Park Memorial Institute, Biowest SAS, Nuaillé, France), while the MDA-MB-231 and HaCaT cells were maintained in DMEM (Dulbecco’s Modified Eagle’s Medium, Biowest SAS, Nuaillé, France) supplemented with 1% streptomycin and penicillin and in 10% heat-inactivated fetal bovine serum (FBS, Gibco BRL San Francisco, CA, USA) with 1% streptomycin and penicillin. The cells were incubated in a 37 °C/5% CO2 humidified incubator. They were cultured until 80–90% confluence was achieved. Then, they were harvested by treatment with 0.25% trypsin-0.02% EDTA (Gibco BRL, San Francisco, CA, USA) and used in the experiments. Untreated cells were used as a control. […] After 24 h of incubation, the culture medium was replaced with a fresh medium. […] Then, the medium was aspirated and formed formazan crystals were solubilized by adding isopropanol-DMSO mixture (1:1 vol). The intensity of the dissolved crystals was measured using a UVM 340 reader (ASYS Hitech GmbH, Eugendorf, Austria) at a wavelength of 570 nm. Cell viability was estimated by the percentage of MTT reduction in cells to which the tested compounds were added, compared to the control sample, where only the medium was added. The experiments were repeated three times. The IC50 was calculated using GraphPad Prism 9.0.0 (GraphPad Software).

[2] = system: PC3; assay: MTT cell viability assay; type: cell-based, human; settings: for IC50: Homo sapiens, PC-3, PC3, MTT, read-out: Cytotoxic activity IC50
Description: as §1

[3] = system: MDA-MB-231; assay: MTT cell viability assay; type: cell-based, human; settings: for IC50: Homo sapiens, MDA-MB-231, MTT, read-out: Cytotoxic activity IC50
Description: as §1

[4] = system: Bacillus subtilis ATCC 6633; assay: Broth microdilution MIC/MBC, antibacterial; type: cell-based; settings: ATCC6633
Description: (§2) The minimal inhibitory concentration (MIC) was determined with the microdilution technique using 96-well polystyrene microplates (Medlab, Poland), as indicated by the European Committee on Antimicrobial Susceptibility Testing (EUCAST) guidelines. In this process, stock solutions of each tested Schiff base dissolved in dimethylsulphoxide (DMSO, Stanlab, Poland) were used at a concentration of 50 mg/mL. Before in vitro antibacterial activity detection, the basic concentration of 1000 µg/mL of each compound was prepared with Mueller–Hinton broth medium (MHB, BioMaxima, Lublin, Poland). The experiment was prepared using Mueller–Hinton broth medium in 96-well microplates. A series of two-fold dilutions of the tested compounds in the concentration range from 0.49 to 1000 μg/mL was made in culture broth medium. Then, 2 μL of bacterial inoculum with a density of 0.5 McFarland standard was added to each well. Each well was filled with a total volume of 100 μL. Then, the microtiter plates were incubated for 18 ± 2 h at 35 °C. After the incubation, the results were spectrophotometrically determined in Biotek ELx800 (Biokom, Janki, Poland) at 600 nm (OD600). The lowest concentration of the tested compounds with the absence of bacterial growth was determined as an MIC. Three replicates for each strain and compound were performed.
(§3) After incubation, 5 μL of the broth media cultured with bacteria or fungi were removed from each well of the plates used in the MIC experiments. Next, they were culturd onto the surface of the MHA medium (BioMaxima, Lublin, Poland) plate for bacteria or MHA +2% glucose plate for yeasts. The inoculated plates were incubated in the conditions mentioned above. After incubation, a visual reading of MBC or MFC values was made. […] Three replicates for each strain and compound were performed.

[5] = system: Micrococcus luteus ATCC 10240; assay: Broth microdilution MIC/MBC, antibacterial; type: cell-based; settings: ATCC10240
Description: as §2, §3

[6] = system: Pseudomonas aeruginosa ATCC 27853; assay: Broth microdilution MIC/MBC, antibacterial; type: cell-based; settings: ATCC27853
Description: as §2, §3

[7] = system: Escherichia coli ATCC 25922; assay: Broth microdilution MIC/MBC, antibacterial; type: cell-based; settings: ATCC25922, Escherichia coli ATCC 25922
Description: as §2, §3

[8] = system: Klebsiella pneumoniae ATCC 13883; assay: Broth microdilution MIC/MBC, antibacterial; type: cell-based; settings: ATCC13883, Klebsiella pneumoniae ATCC 13883
Description: as §2, §3

[9] = system: Staphylococcus epidermidis ATCC 12228; assay: Broth microdilution MIC/MBC, antibacterial; type: cell-based; settings: ATCC12228
Description: as §2, §3

[10] = system: Staphylococcus aureus ATCC 6538; assay: Broth microdilution MIC/MBC, antibacterial; type: cell-based; settings: ATCC6538
Description: as §2, §3

[11] = system: Candida auris CDC B11903; assay: Broth microdilution MIC/MFC, antifungal; type: cell-based; settings: Candidozyma auris, CDCB11903
Description: (§4) To determine the antifungal activity of the newly synthesized Schiff bases against the reference strains of Candida spp., the broth microdilution method was used according to the EUCAST [52] and Clinical and Laboratory Standards Institute (CLSI) guidelines with some modifications to the medium. Before in vitro antifungal activity detection, the basic concentration of 1000 µg/mL of each compound was prepared with Mueller–Hinton broth (BioMaxima, Lublin, Poland) supplemented with 2% glucose (MHB+2% glucose). […] The final concentrations of the Schiff bases ranged from […] to 1000 µg/mL. All the reference strains of Candida spp. used were first subcultured to the Mueller–Hinton agar medium (BioMaxima, Lublin, Poland) with 2% glucose (MHA +2% glucose) at 37 °C for 24 h. Next, 2 µL of appropriate fungal suspensions was added to each well containing 100 µL of MHB + 2% glucose and the various concentrations of the tested Schiff bases.
as §3

[12] = system: Candida glabrata ATCC 15126; assay: Broth microdilution MIC/MFC, antifungal; type: cell-based; settings: Nakaseomyces glabratus, ATCC15126
Description: as §4, §3

[13] = system: Candida lusitaniae ATCC 3449; assay: Broth microdilution MIC/MFC, antifungal; type: cell-based; settings: Clavispora lusitaniae, ATCC3449
Description: as §4, §3

[14] = system: Candida albicans ATCC 10231; assay: Broth microdilution MIC/MFC, antifungal; type: cell-based; settings: for MIC: ATCC10231
Description: as §4, §3

[15] = system: Candida krusei ATCC 14243; assay: Broth microdilution MIC/MFC, antifungal; type: cell-based; settings: Pichia kudriavzevii, ATCC14243
Description: as §4, §3

[16] = system: Candida glabrata ATCC 90030; assay: Broth microdilution MIC/MFC, antifungal; type: cell-based; settings: Nakaseomyces glabratus, ATCC90030
Description: as §4, §3

[17] = system: Candida tropicalis ATCC 1369; assay: Broth microdilution MIC/MFC, antifungal; type: cell-based; settings: ATCC1369
Description: as §4, §3

Row | MIC [4] | MIC [5] | MIC [6] | MIC [7] | MIC [8] | MIC [9] | MIC [10] | MIC [11] | MIC [12] | MIC [13] | MIC [14] | MIC [15] | MIC [16] | MIC [17] | SMILES | IC50 at 72 h ([1]; 72 h (table footnote)) | IC50 ([2]; 72 h (table footnote)) | IC50 ([3]; 72 h (table footnote)) | IC50 at 72 h ([1]; same value in µg/mL) | IC50 ([2]; same value in µg/mL) | IC50 ([3]; same value in µg/mL) | further results
1 | – | – | – | – | – | – | – | – | – | – | – | – | – | – | COc1cccc2c1C(=O)c1c(O)c3c(c(O)c1C2=O)C[C@@](O)(C(=O)CO)C[C@@H]3O[C@H]1C[C@H](N)[C@H](O)[C@H](C)O1 [Doxorubicin, reference compound] | 0.3 µM | 0.3 µM | 0.83 µM | – | – | – | SI (Selectivity Index) ([2]; IC50 normal cell line (HaCaT)/IC50 PC3): 1; SI (Selectivity Index) ([3]; IC50 normal cell line (HaCaT)/IC50 MDA-MB-231): 0.36
2 | > 1000 µg/mL | > 1000 µg/mL | > 1000 µg/mL | > 1000 µg/mL | > 1000 µg/mL | > 1000 µg/mL | > 1000 µg/mL | > 1000 µg/mL | > 1000 µg/mL | > 1000 µg/mL | 250 µg/mL (≈ 800 µM) | > 1000 µg/mL | > 1000 µg/mL | > 1000 µg/mL | Cc1ccc(C=Nn2c(-c3cccc(F)c3)n[nH]c2=S)cc1 [RO1, 5-(3-fluorophenyl)-4-[(4-methylbenzylidene)amino]-2,4-dihydro-3H-1,2,4-triazole-3-thione] | > 100 µM | > 100 µM | > 100 µM | > 31.2 µg/mL | > 31.2 µg/mL | > 31.2 µg/mL | MFC ([14]; ATCC10231, read-out: MFC): > 1000 µg/mL; melting point: 227 to 230 °C
3 | > 1000 µg/mL | > 1000 µg/mL | > 1000 µg/mL | > 1000 µg/mL | > 1000 µg/mL | > 1000 µg/mL | > 1000 µg/mL | 1000 µg/mL (≈ 2910 µM) | 1000 µg/mL (≈ 2910 µM) | 1000 µg/mL (≈ 2910 µM) | 500 µg/mL (≈ 1460 µM) | 1000 µg/mL (≈ 2910 µM) | > 1000 µg/mL | 500 µg/mL (≈ 1460 µM) | O=[N+]([O-])c1ccc(C=Nn2c(-c3cccc(F)c3)n[nH]c2=S)cc1 [RO3, 5-(3-fluorophenyl)-4-[(4-nitrobenzylidene)amino]-2,4-dihydro-3H-1,2,4-triazole-3-thione] | > 100 µM | > 100 µM | > 100 µM | > 34.3 µg/mL | > 34.3 µg/mL | > 34.3 µg/mL | melting point: 230 to 231 °C
